Experimental data published in patent US6495584B1, “Use of 3-(1H-imidazol-4-ylmethyl)-indan-5-ol in the manufacture of a medicament for intraspinal, intrathecal or epidural administration” (Orion Corporation, priority 1998, dated 2002).
Like-named read-outs stand apart in the source and are kept apart here.

Assays:
physchem = experiment: physchem
Method: The hydrochloride salts of the above compounds were shaken for 90 minutes in a separatory funnel at room temperature with equal volumes (1:1, v/v) of an organic phase (water saturated 1-octanol) and an aqueous solution (0.1 M HCI or 67 mM phosphate buffer pH 7.4), separating the two phases. The quantitations of the amounts of the studied compounds were performed by the RP-HPLC (reverse phase high pressure liquid chromatography) technique. […] As a mobile phase, methanol: 15 mM phosphate buffer pH2 at the ratio 50:50 (v/v) was used.
The partition coefficient (P) is a ratio of the equilibrium concentrations of a solute in a lipophilic environment (1-octanol) and water (P=coct/cwater). The logarithm of the partition coefficient (logP) is used as a lipophilicity parameter for a neutral molecule. D is the partition coefficient measured at a pH where the molecules are partly or totally ionized.

rat [1] = conditions: Sprague-Dawley, in vivo
Description: (§4) The rats (Sprague-Dawley, B&K, Sollentuna, Sweden) were anaesthetized by midazolam and fentanyl-fluanisone combination anaesthesia and then chronically catheterized according to the method described by Yaksh and Rudy (Physiology & Behaviour 17,1031-1036, 1976). Briefly, the atlanto-occipital membrane of the spine (directly below the skull) was incised. A polyethylene catheter (PE10 Intramedic, USA) filled with sterile saline was carefully and slowly pushed 8 cm into the spinal cavity. The end of the catheter is known to reach the close proximity of the lumbar enlargement of the spine. The location of the end of the catheter was tested by administering 0.5 mg lidocain approximately 3 days after catheterization. If both hindlegs were paralyzed, the rat was used in the drug tests.
Effects on gastrointestinal motility were measured in separate animals as follows (the charcoal propulsion test). The rats (8/group) were fasted overnight and were randomized according to the latin square design. 30 minutes after the administration of the drugs, a 10% charcoal suspension in 0.25% Na-carboxy-methylcellulose was administered perorally by a gavage. […] The distance of the charcoal suspension from the pylorus in the intestine was measured. […] The ED50 value of the dose-response graph was determined by the Graph Pad Prism v. […]

rat [2] = experiment: Tail-flick analgesia test; assay type: in vivo
Method: (§1) There were 8 rats in each group tested.
Tail-flick analgesia was tested by a tail-flick analgesy meter (Ugo Basile, Italy). The analgesia testing was done no earlier than four days after the catheterization. The rats were always habituated to the immobilization chambers that were used in the analgesia measurements. The tail of the rat was outside the chamber and it was placed on the heating spot of the apparatus. Thus, the hot infrared beam would hit the tail. When the rat reacted and moved the tail away from the beam, the analgesy meter automatically measured the latency of the tail-withdrawal. The tail-flick measurement was always repeated three times, one after another, to diminish the effect of a possible unspecific reaction. […] The maximal latency (cut-off time) was set to 5 seconds in order to prevent burns of the tail. The predrug tail-flick latencies were first measured, and then the rats were administered 10 μl of the drug solution by a Hamilton syringe. Immediately thereafter the catheter was washed with 10 μl of sterile saline, and the tip was sealed by a lighter. The analgesia was tested after 30 minutes from the administration of the drug by measuring tail-flick analgesia as described above.
The tail-flick analgesia data were represented as MPE% values (maximum possible effect %). The tail-flick latencies (mean of three measurements) were calculated as MPE% values as follows: (postdrug latency−predrug latency)/(cut-off time−predrug latency)×100%. The dose-response curves were drawn of the MPE% values, and the dose was on a logarithmic scale (see FIG. 1). […] 1.03 (San Diego, USA) software.
(§2) The analgesic activity and sedative effect after intravenous (to the tail vein) and subcutaneous administration were studied according to the methods described in Example 2.

rat [3] = experiment: in vivo
Method: as §1
(§3) Sedative effects (effects on motor activity) were measured in a polypropylene animal cage (38×22×15 cm) with a transparent polypropylene lid by Photobeam Activity System (PAS, Cage Rack, San Diego Instruments, San Diego, USA). The system consists of 16 separate enclosures connected to a computer control unit. There were three photobeams in each enclosure. The enclosures surrounded the cage at the height of 5 cm. The breaking of beams was counted as locomotor activity.
as §2

in vivo = conditions: Sprague-Dawley, rat
Method: as §1, §3, §2

rat [4] = experiment: Motor coordination: rotarod treadmill; conditions: intrathecal, 15 minutes after injection
Description: as §4
(§5) The effect on motor coordination was evaluated by a rotarod treadmill for rats (Ugo Basile, Italy). It consists of four drums (diameter of 70 mm) separated by five flanges. The drums were adjusted to rotate 4 revolutions per minute. The rod was rotated against the direction of the rat, so it had to walk forward to stay on the rod. […]
(§6) Fifteen minutes after the drug injection, the rat was placed on the rotarod apparatus, and the falling time was measured. […] The dose-response curves were drawn on a logarithmic scale, and the ED50 values were determined graphically from these.

rat [5] = conditions: Sprague-Dawley, in vivo, 15 min
Description: as §4, §5, §6

Oc1ccc2c(c1)C(Cc1c[nH]cn1)CC2 (centres unmarked) [Compound A, 3-(1H-imidazol-4-ylmethyl)-indan-5-ol]
logD at 90 min (physchem; pH 1): -0.69 | logD at 90 min (physchem; pH 7.4): 1.91 | ED50 Inhib. of GI motility (rat [1]): 5.7 µg/rat | ED50 (rat [2]; central, intrathecal (it), Table 2 result per rat multiplied by 3): 0.0021 mg/kg | ED50 Analgesia (tail-flick test) (rat [2]; intrathecal, 30 minutes after administration): 0.7 µg/rat | ED50 (rat [2]; intravenous (iv)): > 0.03 mg/kg | ED50 (rat [2]; subcutaneous (sc)): > 0.3 mg/kg | Sedation at an analgesic dose (rat [3]): not to induce sedation | ED50 at 10 min (in vivo): 0.09 mg/kg | ED50 at 10 min (in vivo; sc): 0.08 mg/kg | ED50 Loss of motor coordin. (decrease in rotarod performance) (rat [4]): > 30 µg/rat

Clc1cccc(Cl)c1N=C1NCCN1 [Compound B, clonidine, reference compound]
ED50 Inhib. of GI motility (rat [1]): 3.5 µg/rat | ED50 Loss of motor coordin. (decrease in rotarod performance) (rat [5]): >10 g/rat

clonidine [Compound B, reference compound]
ED50 Analgesia (tail-flick test) (rat [2]; in vivo): 6.4 µg/rat
